{"source": "patent US20110166226A1", "about": "“PROCESS FOR OBTAINING AN EXTRACT RICH IN ROSMARINIC ACID (RA) FROM THE PLANT ORIGANUM VULGARE AND ITS USE FOR THE TREATMENT OF DIABETES” (ACEF S/A, priority 2008, published 2011)", "type_in_all_cases": "in vivo, rat", "key": {"[1]": {"tested_on": "diabetic rats induced by alloxan", "test": "Hypoglycemiant activity in diabetic rats induced by alloxan, 15 days oral treatment then follow-up without treatment", "details": "for plasmatic levels of glycemia: mean ± EPM", "experimental": "The induction of diabetes in animals was done by using alloxan. The animals stayed in fasting for 24 hours before receiving injections of alloxan, so that the animals became more susceptive to diabetes. After a pilot study, the dose of alloxan that was used was 40 mg/kg injected via intravenous in caudal vein. Alloxan was diluted in sodium citrate 0.05M pH 4.5 and the injected volume was 500. During the four hours after the injection, the animals received glucose solution 5% via oral (ad libidum) in order to prevent from seizures and death, what is common in hypoglycemia. On the first two days after diabetes induction, the animals received an insulin injection (100 μl—diluted 1/10) at every 24 hs via subcutaneous (FIG. 3). This procedure guarantees animals to survive during the disease acute phase enabling the study. […] To use in the animals, it was employed corresponding doses, considering animals body mass, which is about 250 mg/kg of hydroalcoholic extract, 55 mL of infusion/rat and 25 mg/kg of RA. The animals received treatment via oral (v.o.), being maintained during a period of 40 days. The first 15 days evaluated by receiving treatment and the subsequent days with no treatment, so that it was possible to evaluate the potential to maintain the glycemic level. The obtained results are represented in the charts from FIGS. 4 to 7. As it can be observed in FIG. 4, the glycemic levels were monitored during 15 alternate days. After 15 days, the treatment was suspended (ST) and it was evaluated during 5, 10, 15 and 40 days. The data represent the mean±EPM, P<0.0001, when compared to the answer obtained for the groups DTE versus CD and CD versus CN (Anova followed by the Turkey-Kramer test). In FIG. 5, glycemic levels were monitored during 15 alternate days. After 15 days, the treatment was suspended (ST) and it was evaluated during 5, 10, 15 and 40 days. The data represent the mean±EPM, P<0.0001, when compared to the answer obtained for the groups DTAR versus CD and CD versus CN (Anova followed by the Turkey-Kramer test). In FIG. 6, glycemic levels were monitored during 15 alternate days. After 15 days, the treatment was suspended (ST) and it was evaluated during 5, 10, 15 and 40 days. The data represent the mean±EPM, P<0.0001, when compared to the answer obtained for the groups DTC versus CD and CD versus CN (Anova followed by the Turkey-Kramer test). In FIG. 7, glycemic levels were monitored during 15 alternate days. After 15 days, the treatment was suspended (ST) and it was evaluated during 5, 10, 15 and 40 days. The data represent the mean±EPM, P<0.0001, when compared to the answer obtained for the groups treated versus CD. (Anova followed by the Turkey-Kramer test)."}, "[2]": {"tested_on": "normal rats", "test": "Glycemic level in normal rats"}, "[3]": {"tested_on": "diabetic rats induced by alloxan", "test": "Glycemia monitored for 4 h (60, 120 and 240 minutes) in diabetic rats, chlorpropamide as positive control (FIG. 8)", "details": "25 mg/kg v.o., chlorpropamide 40 mg/kg as positive control (FIG. 8)", "experimental": "FIG. 8—Graphic of the variation in plasmatic levels of glycemia (mg/dL), observed in the different experimental groups: Diabetic treated with hydroalcoholic extract (DTE, 250 mg/kg, v.o.), Diabetic treated with Rosmarinic Acid (DTRA, 25 mg/kg, v.o.), Diabetic treated with drugs in the market (Clorpropamida, 40 mg/kg), Diabetic Control (DC) and Normoglycemic Control (NC).\nThe induction of diabetes in animals was done by using alloxan. The animals stayed in fasting for 24 hours before receiving injections of alloxan, so that the animals became more susceptive to diabetes. After a pilot study, the dose of alloxan that was used was 40 mg/kg injected via intravenous in caudal vein. Alloxan was diluted in sodium citrate 0.05M pH 4.5 and the injected volume was 500. During the four hours after the injection, the animals received glucose solution 5% via oral (ad libidum) in order to prevent from seizures and death, what is common in hypoglycemia. On the first two days after diabetes induction, the animals received an insulin injection (100 μl—diluted 1/10) at every 24 hs via subcutaneous (FIG. 3). This procedure guarantees animals to survive during the disease acute phase enabling the study.\nIn FIG. 8, glycemic levels were monitored after 60, 120 and 240 minutes. […]"}}, "data": [{"smiles": "O=C(/C=C/c1ccc(O)c(O)c1)O[C@H](Cc1ccc(O)c(O)c1)C(=O)O", "note": "[RA, rosmarinic acid]", "values": [{"measurement": "maintenance of the reduced glycemic level (result in words)", "setting": "[1]; 25 mg/kg v.o., 15 days treatment, followed to 40 days without treatment (FIG. 5)", "value": "in addition of reducing, it kept the glycemic level to the end of the experience"}, {"measurement": "plasmatic levels of glycemia", "setting": "[1]; 5 ST: 5 days with no treatment after the 15 days of treatment", "value": "112.5 ± 5.00", "unit": "mg/dL"}, {"measurement": "plasmatic levels of glycemia", "setting": "[1]; 10 ST: 10 days with no treatment after the 15 days of treatment", "value": "101.5 ± 19.13", "unit": "mg/dL"}, {"measurement": "plasmatic levels of glycemia", "setting": "[1]; 15 ST: 15 days with no treatment after the 15 days of treatment", "value": "103.5 ± 10.78", "unit": "mg/dL"}, {"measurement": "plasmatic levels of glycemia", "setting": "[1]; 40 ST: 40 days with no treatment after the 15 days of treatment", "value": "109.3 ± 9.87", "unit": "mg/dL"}, {"measurement": "effect on level of plasmatic glycemic in diabetic rats (result in words)", "setting": "[1]; diabetic rats", "value": "reducing the level of plasmatic glycemic in diabetic rats"}, {"measurement": "plasmatic levels of glycemia", "setting": "[1]; evaluated day 0, v.o.: infusion 55 mL/rat, extract 250 mg/kg, RA 25 mg/kg", "value": "362.6 ± 101.52", "unit": "mg/dL"}, {"measurement": "plasmatic levels of glycemia", "setting": "[1]; evaluated day 1 of treatment, v.o.: infusion 55 mL/rat, extract 250 mg/kg, RA 25 mg/kg", "value": "136.6 ± 44.96", "unit": "mg/dL"}, {"measurement": "plasmatic levels of glycemia", "setting": "[1]; evaluated day 3 of treatment, v.o.: infusion 55 mL/rat, extract 250 mg/kg, RA 25 mg/kg", "value": "114.0 ± 8.46", "unit": "mg/dL"}, {"measurement": "plasmatic levels of glycemia", "setting": "[1]; evaluated day 5 of treatment, v.o.: infusion 55 mL/rat, extract 250 mg/kg, RA 25 mg/kg", "value": "71.5 ± 22.66", "unit": "mg/dL"}, {"measurement": "plasmatic levels of glycemia", "setting": "[1]; evaluated day 7 of treatment, v.o.: infusion 55 mL/rat, extract 250 mg/kg, RA 25 mg/kg", "value": "124.5 ± 27.75", "unit": "mg/dL"}, {"measurement": "plasmatic levels of glycemia", "setting": "[1]; evaluated day 9 of treatment, v.o.: infusion 55 mL/rat, extract 250 mg/kg, RA 25 mg/kg", "value": "100.1 ± 12.31", "unit": "mg/dL"}, {"measurement": "plasmatic levels of glycemia", "setting": "[1]; evaluated day 11 of treatment, v.o.: infusion 55 mL/rat, extract 250 mg/kg, RA 25 mg/kg", "value": "108.0 ± 13.31", "unit": "mg/dL"}, {"measurement": "plasmatic levels of glycemia", "setting": "[1]; evaluated day 13 of treatment, v.o.: infusion 55 mL/rat, extract 250 mg/kg, RA 25 mg/kg", "value": "92.1 ± 16.89", "unit": "mg/dL"}, {"measurement": "plasmatic levels of glycemia", "setting": "[1]; evaluated day 15 of treatment, v.o.: infusion 55 mL/rat, extract 250 mg/kg, RA 25 mg/kg", "value": "102.0 ± 12.60", "unit": "mg/dL"}, {"measurement": "effect on glycemic level in normal rats (result in words)", "setting": "[2]", "value": "not reducing the glycemic level in normal rats"}, {"measurement": "effectiveness on glycemia monitored for 4 h (result in words)", "setting": "[3]", "value": "it was verified the effectiveness"}]}]}
